Test results from patent publication US20240189269A1, “PHARMACEUTICAL COMPOSITION FOR SUPPRESSING TMPRSS2 EXPRESSION” (Tokyo Institute of Technology, priority 2021, published 2024).

System: ACE2
Assay: Western blot analysis of amount of ACE2 protein expressed in HepG2 cells
Type: cell-based, human
Settings: compared to control (untreated)
Procedure: (i) Human liver cancer-derived cell strain HepG2 was cultured for 2 days with Dulbecco's modified Eagle medium (DMEM) comprising 10% fetal bovine serum (FBS) under 5% CO2.
(ii) After 2 days, 5-aminolevulinic acid hydrochloride salt (ALA) was supplemented to the DMEM comprising FBS to a final concentration of 1 mM, and the cells of (i) were cultured in said medium at 37° C. for 48 hours. Note that those without any supplements was set as the control.
(iii) After 48 hours, the cell supernatant was discarded, the cells were washed with PBS, and then Lysis buffer A (+) (50 mM Tris-HCl (pH 7.4), 20 mM N-methylmaleimide, 1 mM DTT, 1% (v/v) Triton X-100, and Protease inhibitor cocktail) was added, and the cell lysate was collected. Homogenization and centrifugation (3,000 rpm, 10 minutes, 4 °C) were then performed, and the residue was removed. A part of the cell lysate collected was quantified for proteins with the Bradford method, and the remainder was mixed with SDS sample buffer (50 mM Tris-HC1, pH 6.8, 2% SDS, 2.5% mercaptoethanol, 10% glycerol, 0.01% bromophenol blue), and stored frozen at −30° C. The prepared sample was subjected to 7.5% SDS-polyacrylamide electrophoresis, the 7.5% SDS-polyacrylamide gel after electrophoresis was transferred to a membrane, and the transfer was confirmed with
Ponceau S solution. After the transfer was confirmed, Western blot analysis employing rabbit anti-human ACE2 antibody (Abcom, ab108252) and HRP-labeled anti-rabbit IgG secondary antibody (Cell Signaling Technology, 7074S) was performed by conventional means.
As internal standards, each sample was subjected to 7.5% SDS-polyacrylamide electrophoresis, the 7.5% SDS-polyacrylamide gel after electrophoresis was transferred to a membrane, and the transfer was confirmed with Ponceau S solution. After the transfer was confirmed, Western blot analysis employing mouse anti-human actin antibody (MP biomedicals, 691001) and HRP-labeled anti-mouse IgG secondary antibody (Cell Signaling Technology, 7076S) was performed by conventional means. […]

sodium ferrous citrate [SFC]
amount of ACE2 protein expressed (Experiment 2, SFC only 0.5 mM): no reduction

Cl.NCC(=O)CCC(=O)O [ALA, 5-aminolevulinic acid hydrochloride salt]
amount of ACE2 protein expressed (Experiment 1, ALA 1 mM, 48 hours): significantly reduced | amount of ACE2 protein expressed (Experiment 2, ALA 1 mM): reduced
